Test results taken from the NIST ThermoML archive (doi:10.1016/j.jct.2016.12.023).

Experiment: mn = molality of the nth substance listed, in mol/kg
Conditions: 298.15 K, 101.33 kPa, Liquid, Vibrating tube method

OC[C@H]1O[C@@H]2O[C@H]3[C@H](O)[C@@H](O)[C@@H](O[C@H]4[C@H](O)[C@@H](O)[C@@H](O[C@H]5[C@H](O)[C@@H](O)[C@@H](O[C@H]6[C@H](O)[C@@H](O)[C@@H](O[C@H]7[C@H](O)[C@@H](O)[C@@H](O[C@H]1[C@H](O)[C@H]2O)O[C@@H]7CO)O[C@@H]6CO)O[C@@H]5CO)O[C@@H]4CO)O[C@@H]3CO [α-cyclodextrin] + O
Conditions | mass density [kg/m3]
m1 = 0.00975 | 1000.6
m1 = 0.01763 | 1003.4
m1 = 0.02931 | 1007.6
m1 = 0.03389 | 1009.2
m1 = 0.04348 | 1012.5
m1 = 0.05233 | 1015.6
m1 = 0.06207 | 1018.9
m1 = 0.07117 | 1022
m1 = 0.0783 | 1024.4
m1 = 0.09004 | 1028.3
m1 = 0.09733 | 1031
m1 = 0.09764 | 1030.7
m1 = 0.09915 | 1031.6
m1 = 0.09944 | 1031.7
m1 = 0.1001 | 1031.6
